Reference: patent US20250206761A1, “HALOINDOLE MACROCYCLIC COMPOUNDS FOR THE TREATMENT OF CANCER” (Hoffmann-La Roche Inc., priority 2022, published 2025)
Read-outs that look alike come from different tables or passages of the source.

Details: ester bond, EDCI/HOBt/DIEA, DCM

In the case of `CO[C@@H](C)c1ncc(N2CCN(C(=O)OCc3ccccc3)CC2)cc1-c1c2c3cc(c(F)cc3n1CC(F)(F)F)-c1cc(cc(O[Si](C(C)C)(C(C)C)C(C)C)c1)C[C@H](NC(=O)OC(C)(C)C)C(=O)N1CCC[C@H](N1)C(=O)OCC(C)(C)C2`, the ring closure, yield of all isomers (from CO[C@@H](C)c1ncc(N2CCN(C(=O)OCc3ccccc3)CC2)cc1-c1c(CC(C)(C)CO)c2cc(-c3cc(C[C@H](NC(=O)OC(C)(C)C)C(=O)N4CCC[C@@H](C(=O)O)N4)cc(O[Si](C(C)C)(C(C)C)C(C)C)c3)c(F)cc2n1CC(F)(F)F, 8.33 mM, 15.0 °C, 12.0 h) is reported as 74.2%.
In the case of `CO[C@@H](C)c1ncc(N2CCOCC2)cc1-c1c2c3cc(c(F)cc3n1CC(F)(F)F)-c1csc(n1)C[C@H](NC(=O)OC(C)(C)C)C(=O)N1CCC[C@H](N1)C(=O)OCC(C)(C)C2`, the ring closure, yield of all isomers (from CO[C@@H](C)c1ncc(N2CCOCC2)cc1-c1c(CC(C)(C)CO)c2cc(-c3csc(C[C@H](NC(=O)OC(C)(C)C)C(=O)N4CCC[C@@H](C(=O)O)N4)n3)c(F)cc2n1CC(F)(F)F, 12.0 mM, 20.0 °C, 15.0 h) is reported as 81.3%.
